Data set [1] is described as follows: Determination of iron(III) affinity (Logβ1, Logβ2, Logβ3) by spectrophotometric titration. The format is physicochemical. The conditions noted are these: DMSO:KCl (0.1 M) = 2:3 (V/V), 25 °C; for Logβ1: compound:iron 1.1:1; for Logβ2 / Logβ3: compound:iron 5:1. On the procedure:
(§1) The automatic titration system used in the test consisted of an automatic titrator, a luminescence 759 s UV-Vis spectrophotometer, and a pH Meter (Mettler Toledo InLab Expert PRO/Mettler Toledo InLab Science). All instruments are controlled by a computer program.
(§2) The testing solution (2:3 DMSO/KCl (0.1 M), V/V) was maintained at 25 °C using a TP-3A temperature controller. The cuvette is mounted on a spectrophotometer. The E0 and s of the pH Meter were calibrated by three standard solutions (pH = 6.86, 9.18, 4.00). KCl solution (0.1 M) was used to maintain the ionic strength. For the Fe(III) affinity evaluation, the ratio of compounds to iron ion was kept at 1.1:1 (n/n) when Logβ1 was measured; the ratio of compounds to iron ion was kept at 5:1 (n/n) when Logβ2 and Logβ3 were tested.
A 45 ml KCl (0.1 M) solution was added to the cuvette (50 mm) and the pH value was acidified to 2.1. Then 30 μM DMSO solution of the testing compound and 60 μL acidic solution of FeCl3 (15 mM) were added separately, and the mixture was vigorously stirred. After the absorbance value is stabilised, a certain amount of HCl solution (4 M) was added by the automatic buret to reduce the pH of the solution by 0.1. After the system was equilibrated, the spectral scan was performed once after 20 min. This protocol was repeated until the specified endpoint of the pH value was reached. All data was recorded with the internal Visual Basic program, HypSpec2014 program was utilised for the data analysis.
Similarly, 45 ml KCl (0.1 M) solution was added to the cuvette (50 mm) and the pH value was acidified to 2.1. Then 30 μM DMSO solution of the testing compound and 60 μL acidic solution of FeCl3 (15 mM) were added separately, and the mixture was vigorously stirred. After the absorbance value is stabilised, a certain amount of KOH solution (0.1 M) was added by the automatic buret to increase the pH of the solution by 0.1. After the system was equilibrated, the spectral scan was performed once after 5 min. This protocol was repeated until the specified endpoint of the pH value was reached. All data were recorded with the internal Visual Basic program, HypSpec2014 program was utilised for the data analysis[5]^,[21]^,[22].

Data set [2] is described as follows: Calculation of pFe3+ by HySS software from pKa and logβ values. The format is physicochemical. The settings on record: DMSO:KCl (0.1 M) = 2:3 (V/V); calculated by HySS from pKa1, pKa2, logβ1-3. On the procedure: The values of pFe^3+ were calculated by HySS software according to the results of pKa1, pKa2, logβ1, logβ2, and logβ3 determined by the above methods. The basic parameters were set as follows: FeOH = –2.563, Fe(OH)2 = –6.205, Fe(OH)3 = –15.1, Fe2(OH)2 = –2.843, Fe3(OH)4 = –6.059, Fe(OH)4 = –21.883[23].

The target of data set [3] is T1, Human MAO-B (Homo sapiens, UniProt P27338).
T1 construct: purchased Sigma-Aldrich
T1 sequence (P27338 1-520): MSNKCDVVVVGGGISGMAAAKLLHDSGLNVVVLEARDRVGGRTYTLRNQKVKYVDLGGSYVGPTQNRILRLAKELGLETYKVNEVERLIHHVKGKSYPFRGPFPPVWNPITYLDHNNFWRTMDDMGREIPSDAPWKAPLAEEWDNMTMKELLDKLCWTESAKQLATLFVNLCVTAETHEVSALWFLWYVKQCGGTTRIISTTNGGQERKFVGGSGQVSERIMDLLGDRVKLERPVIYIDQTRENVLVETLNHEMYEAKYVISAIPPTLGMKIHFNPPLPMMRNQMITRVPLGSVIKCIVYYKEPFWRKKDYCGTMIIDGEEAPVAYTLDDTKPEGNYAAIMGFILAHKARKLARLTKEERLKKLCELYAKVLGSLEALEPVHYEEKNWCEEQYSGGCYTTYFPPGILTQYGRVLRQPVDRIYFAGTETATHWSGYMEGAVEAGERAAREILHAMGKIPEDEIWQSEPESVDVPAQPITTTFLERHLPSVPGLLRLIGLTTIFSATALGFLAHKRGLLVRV
As to the kind of experiment: Determination of human MAO-B inhibitory activity (Monoamine Oxidase Assay Kit, fluorescence). Type of data set: biochemical. The conditions noted are these: for inhibition at 1 µM: compound at 1 μM, read-out: Inhibitory rate (%) 1 μM; for inhibition at 10 µM: compound at 10 μM, read-out: Inhibitory rate (%) 10 μM.
Protocol: Human MAO-B (5 mg/mL) was purchased from Sigma-Aldrich and was pre-aliquoted and stored at -70 °C. 200 μL enzymatic reactions were diluted in 2 ml microcentrifuge tubes by potassium phosphate buffer (Assay Buffer, pH 7.4) which have been provided by Sigma-Aldrich Monoamine Oxidase Assay Kit. The final volumes of the reactions were 100 μL and contained 45 μL MAO-B (0.0075 mg/mL), included 5 μL different concentrations of the testing inhibitors (10 μM, 1 μM), and 50 μL Master Reaction, p-Tyramine, HRP Enzyme and Dye Reagent. Stock solutions of the compounds were prepared in DMSO.

The nature of data set [4]: pKa determination by automatic spectrophotometric titration. The conditions noted are these: DMSO/0.1 M KCl 2:3 (V/V) solution, DMSO:KCl (0.1 M) = 2:3 (V/V), 25 °C. The format is physicochemical. On the procedure:
as §1, §2
The titration was performed in a 50 mm path length cuvette. 45 ml KCl (0.1 M) solution, 40 μL of saturated EDTA solution were added to the cuvette. The pH value of the solution was acidified to 2.0 with hydrochloric acid (1.5 M). Then 20 μL of test compound DMSO solution (30 μM/L) was added and stirred vigorously. By adding KOH solution (0.1 M) from the automatic buret, the pH value of the solution was increased by 0.1. […] Adding KOH solution (0.1 M) and repeated the automatic process until the specified endpoint of pH value was reached. All data were recorded internally by the Visual Basic program, and the test results are analysed by the HypSpec2014 program.

This is an account of results in publication PMC6713216, “Dual-target anti-Alzheimer’s disease agents with both iron ion chelating and monoamine oxidase-B inhibitory activity” (Journal of Enzyme Inhibition and Medicinal Chemistry, 2019).

As a reminder, the melting point is the temperature of the solid-liquid transition. For orientation: IC50 means the concentration needed to halve the response being measured. Lower therefore signals greater potency.

Read-outs that look alike come from different tables or passages of the source.

For `Cc1cc(=O)c(O)c(CO)n1CCn1cc(COc2ccc3ccc(=O)oc3c2)nn1` [Compound 27a, 3-hydroxy-2-(hydroxymethyl)-6-methyl-1–(2-(4-(((2-oxo-2H-chromen-7-yl)oxy)methyl)-1H-1,2,3-triazol-1-yl)ethyl)pyridin-4(1H)-one], the melting point was in the range of 212 to 215 °C. For the same molecule, in data set [1], the Logβ1 is given as 13.8, the Logβ2 is recorded as 24.0 and the Logβ3 is given as 33.7. Besides, the “pFe3+” value in data set [2] was 18.9. Further, in data set [3], the inhibition at 1 µM is > 20% and the inhibition at 10 µM turned out to be 96.2%. The pKa in data set [4] (read-out: pKa1) is 2.7. Also, in data set [4] (read-out: pKa2), the pKa came out at 9.2.
On to `Cc1cc(=O)c(O)c(CO)n1CCCn1cc(COc2ccc3ccc(=O)oc3c2)nn1` [Compound 27b, 3-hydroxy-2-(hydroxymethyl)-6-methyl-1–(3-(4-(((2-oxo-2H-chromen-7-yl)oxy)methyl)-1H-1,2,3-triazol-1-yl)propyl)pyridin-4(1H)-one], for which, in data set [1], the Logβ1 is 12.9, the Logβ2 is listed as 25.5 and the Logβ3 is 33.5. For the same molecule, the “pFe3+” value in data set [2] is 19.8. In addition, in data set [3], half-maximal inhibition (IC50) required 0.68 µM. The pKa in data set [4] (read-out: pKa1) was determined as 2.8. Also, the pKa in data set [4] (read-out: pKa2) was determined as 8.8.
In data set [1], `Cc1cc(=O)c(O)c(C)n1CCn1cc(COc2ccc3ccc(=O)oc3c2)nn1` [Compound 27c, 3-hydroxy-2,6-dimethyl-1–(2-(4-(((2-oxo-2H-chromen-7-yl)oxy)methyl)-1H-1,2,3-triazol-1-yl)ethyl)pyridin-4(1H)-one] showed a Logβ1 of 14.9, a Logβ2 of 26.0 and a Logβ3 of 34.1. In addition, the “pFe3+” value in data set [2] was 18.0. Besides, in data set [3], the inhibition at 1 µM is 1.84% and the inhibition at 10 µM came to 91%. Moreover, in data set [4] (read-out: pKa1), the pKa was found to be 3.3. Further, the pKa in data set [4] (read-out: pKa2) worked out at 9.7.
In turn, `Cc1cc(=O)c(O)c(C)n1CCCn1cc(COc2ccc3ccc(=O)oc3c2)nn1` [Compound 27d, 3-hydroxy-2,6-dimethyl-1–(3-(4-(((2-oxo-2H-chromen-7-yl)oxy)methyl)-1H-1,2,3-triazol-1-yl)propyl)pyridin-4(1H)-one] showed a melting point of 263 to 265 °C. In addition, in data set [1], the Logβ1 came to 14.9, the Logβ2 was 26.3 and the Logβ3 was found to be 34.8. The “pFe3+” value in data set [2] is on record as 17.6. Further, in data set [3], the inhibition at 1 µM worked out at 9.67% and the inhibition at 10 µM came out at 98.3%. Further, the pKa in data set [4] (read-out: pKa1) came to 3.4. For the same molecule, the pKa in data set [4] (read-out: pKa2) was determined as 10.
`CCc1c(O)c(=O)ccn1CCCn1cc(COc2ccc3ccc(=O)oc3c2)nn1` [Compound 27e, 2-ethyl-3-hydroxy-1–(3-(4-(((2-oxo-2H-chromen-7-yl)oxy)methyl)-1H-1,2,3-triazol-1-yl)propyl)pyridin-4(1H)-one]: in data set [1], the Logβ1 is 14.7, the Logβ2 worked out at 26.0 and the Logβ3 came out at 33.2. For the same molecule, the “pFe3+” value in data set [2] is recorded as 17.1. Moreover, in data set [3], the inhibition at 1 µM is 1.23% and the inhibition at 10 µM was 95.7%. Also, the pKa in data set [4] (read-out: pKa1) turned out to be 3.2. Moreover, in data set [4] (read-out: pKa2), the pKa came out at 9.8.
As for `CCc1c(O)c(=O)ccn1CCn1cc(COc2cc(=O)oc3ccccc23)nn1` [Compound 27f, 2-ethyl-3-hydroxy-1–(2-(4-(((2-oxo-2H-chromen-4-yl)oxy)methyl)-1H-1,2,3-triazol-1-yl)ethyl)pyridin-4(1H)-one], the melting point lay in the range of 253 to 256 °C. Also, in data set [1], the Logβ1 came to 14.9, the Logβ2 came out at 25.7 and the Logβ3 is reported as 32.8. Besides, in data set [2], the “pFe3+” value is reported as 16.7. For the same molecule, in data set [3], the inhibition at 1 µM was > 30% and the inhibition at 10 µM stood at 93.3%. For the same molecule, the pKa in data set [4] (read-out: pKa1) came out at 3.4. Moreover, the pKa in data set [4] (read-out: pKa2) came to 9.8.
Molecule `CCc1c(O)c(=O)ccn1CCCn1cc(COc2cc(=O)oc3ccccc23)nn1` [Compound 27g, 2-ethyl-3-hydroxy-1–(3-(4-(((2-oxo-2H-chromen-4-yl)oxy)methyl)-1H-1,2,3-triazol-1-yl)propyl)pyridin-4(1H)-one] had a melting point of 195 to 198 °C. In addition, in data set [1], the Logβ1 is recorded as 14.6, the Logβ2 turned out to be 25.6 and the Logβ3 was 33.1. Further, the “pFe3+” value in data set [2] is listed as 17.1. For the same molecule, in data set [3], the inhibition at 1 µM was > 20% and the inhibition at 10 µM was 89.5%. The pKa in data set [4] (read-out: pKa1) turned out to be 3.2. Moreover, the pKa in data set [4] (read-out: pKa2) came to 9.7.
For the molecule `Cc1cc(=O)c(O)c(CO)n1CCn1cc(COc2cc(=O)oc3ccccc23)nn1` [Compound 27h, 3-hydroxy-2-(hydroxymethyl)-6-methyl-1–(2-(4-(((2-oxo-2H-chromen-4-yl)oxy)methyl)-1H-1,2,3-triazol-1-yl)ethyl)pyridin-4(1H)-one], the melting point fell in the range of 142 to 148 °C. In data set [1], this molecule yielded a Logβ1 of 13.3, a Logβ2 of 24.8 and a Logβ3 of 33.2. Also, in data set [2], the “pFe3+” value was 18.7. Moreover, in data set [3], the inhibition at 1 µM is 13.2% and the inhibition at 10 µM amounted to 85.7%. In data set [4] (read-out: pKa1), the pKa stood at 3. In addition, in data set [4] (read-out: pKa2), the pKa worked out at 9.1.
As to `CCc1c(O)c(=O)ccn1CCn1cc(COc2cc3ccccc3oc2=O)nn1` [Compound 27i, 2-ethyl-3-hydroxy-1–(2-(4-(((2-oxo-2H-chromen-3-yl)oxy)methyl)-1H-1,2,3-triazol-1-yl)ethyl)pyridin-4(1H)-one], the melting point lay in the range of 258 to 261 °C. Further, in data set [1], the Logβ1 came out at 14.2, the Logβ2 turned out to be 25.4 and the Logβ3 stood at 32.8. The “pFe3+” value in data set [2] is reported as 17.0. In addition, in data set [3], the inhibition at 1 µM is > 30% and the inhibition at 10 µM worked out at 94%. In data set [4] (read-out: pKa1), the pKa was 2.9. Besides, the pKa in data set [4] (read-out: pKa2) turned out to be 9.6.
Turning to `Cc1cc(=O)c(O)c(CO)n1CCCn1cc(COc2cc3ccccc3oc2=O)nn1` [Compound 27k, 3-hydroxy-2-(hydroxymethyl)-6-methyl-1–(3-(4-(((2-oxo-2H-chromen-3-yl)oxy)methyl)-1H-1,2,3-triazol-1-yl)propyl)pyridin-4(1H)-one], in data set [1], the Logβ1 is listed as 13.6, the Logβ2 was found to be 24.5 and the Logβ3 stood at 33.0. Besides, in data set [2], the “pFe3+” value was 18.4. Moreover, in data set [3], the inhibition at 1 µM was > 30% and the inhibition at 10 µM was 90.5%. Also, the pKa in data set [4] (read-out: pKa1) worked out at 3.3. In addition, the pKa in data set [4] (read-out: pKa2) came out at 9.1.
